Measurements: the supplement of paper PMC11061612

Key:
[1] = test system: SK-ES-1 (Ewing's Sarcoma); experiment: Bliss excess, mean over the matrix (fraction); higher = more synergy
In short: (§1)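 After 24 hours at 37°C and 5% CO2 in 1536-well plates, cells in DMEM/F12 or RPMI plus 10% FBS received two-drug dose matrices for 72 hours. Viability came from CellTiter-Glo 2.0 luminescence and was scaled as inhibition, anchored at 0 by vehicle wells and at 1 by blank wells. Combination Emax is taken as the second-highest inhibition in the matrix, and Bliss excess as the observed combination effect less EA + EB − EA·EB, with EA and EB the single-agent effects.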

[2] = test system: NCI-H82 (Small Cell Lung Carcinoma); experiment: as above
In short: as §1

42-MG-BA (Glioblastoma) = experiment: as above
In short: as §1

[3] = test system: HCC1806 (Breast Carcinoma); experiment: as above
In short: as §1

[4] = test system: TE-15 (Esophageal Squamous Cell Carcinoma); experiment: as above
In short: as §1

[5] = test system: UM-UC-3 (Bladder Carcinoma); experiment: as above
In short: as §1

[6] = test system: MDA-MB-361 (Breast Carcinoma); experiment: as above
In short: as §1

[7] = test system: HuP-T4 (Pancreatic Carcinoma); experiment: as above
In short: as §1

[8] = test system: CAL-148 (Breast Carcinoma); experiment: as above
In short: as §1

ES4 (Ewing's Sarcoma) = experiment: as above
In short: as §1

[9] = test system: NCI-H2085 (Non-Small Cell Lung Carcinoma); experiment: as above
In short: as §1

[10] = test system: NCI-H1869 (Non-Small Cell Lung Carcinoma); experiment: as above
In short: as §1

[11] = test system: LS-180 (Colorectal Carcinoma); experiment: as above
In short: as §1

[12] = test system: NCI-H1869 (Non-Small Cell Lung Carcinoma); experiment: combination Emax (second highest fraction inhibited in the dose matrix, 72 h); higher = more inhibition; extreme values may be limits of the assay
In short: as §1
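For Bliss excess, mean over the matrix in this document: after 72 h of two-drug dosing.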

Compound | Bliss excess [1] | Bliss excess [2] | Bliss excess (42-MG-BA (Glioblastoma)) | Bliss excess [3] | Bliss excess [4] | Bliss excess [5] | Bliss excess [6] | Bliss excess [7] | Bliss excess [8] | Bliss excess (ES4 (Ewing's Sarcoma)) | Bliss excess [9] | Bliss excess [10] | Bliss excess [11] | combination Emax [12]
CN(C)CCCOc1ccc(-c2ccc3ncc4c(c3c2)n(C2CCOCC2)c(=O)n4C)cn1 [AZD0156] + O=C(c1cc(Cc2n[nH]c(=O)c3ccccc23)ccc1F)N1CCN(C(=O)C2CC2)CC1 [Olaparib] (first compound max 3 µM, partner max 3 µM) | 0.393 | 0.0369 | 0.0602 | 0.191 | 0.0576 | 0.0739 | 0.0254 | 0.125 | 0.0072 | 0.116 | 0.0267 | -0.0306 | -0.002 | 0.19
C[C@@H](c1ccc2nccn2c1)n1nnc2ncc(-c3cnn(C)c3)nc21 [Savolitinib] + CC1(C)CCC(CN2CCN(c3ccc(C(=O)NS(=O)(=O)c4ccc(NCC5CCOCC5)c([N+](=O)[O-])c4)c(Oc4cnc5[nH]ccc5c4)c3)CC2)=C(c2ccc(Cl)cc2)C1 [Venetoclax] (first compound max 1 µM, 7x7, partner max 1 µM) | -0.0545 | -0.0467 | -0.04 | -0.0367 | -0.0227 | -0.0574 | -0.0349 | -0.0575 | -0.0359 | -0.0443 | -0.0364 | – | -0.0201 | –
C[C@@H](c1ccc2nccn2c1)n1nnc2ncc(-c3cnn(C)c3)nc21 [Savolitinib] + Cc1c2c(nn1C)CSCc1cc(n(C)n1)CSc1cc(c3ccccc3c1)OCCCc1c(C(=O)O)n(C)c3c-2c(Cl)ccc13 [AZD5991] (first compound max 1 µM, 7x7, partner max 1 µM) | -0.0326 | -0.0763 | -0.0633 | 0.0014 | -0.0511 | -0.0161 | -0.0841 | -0.0618 | 0.0087 | -0.0724 | -0.0401 | – | -0.015 | –
Cn1cnc2c(F)c(Nc3ccc(Br)cc3Cl)c(C(=O)NOCCO)cc21 [Selumetinib] + C=CCn1c(=O)c2cnc(Nc3ccc(N4CCN(C)CC4)cc3)nc2n1-c1cccc(C(C)(C)O)n1 [AZD1775] (first compound max 10 µM, partner max 1 µM) | -0.0706 | -0.106 | -0.0509 | 0.0042 | -0.0299 | -0.0187 | -0.053 | 0.0161 | -0.0543 | -0.0679 | -0.0751 | – | -0.0585 | –
Cn1cnc2c(F)c(Nc3ccc(Br)cc3Cl)c(C(=O)NOCCO)cc21 [Selumetinib] + CC(C)n1c(=O)n(C)c2cnc3cc(F)c(-c4ccc(OCCCN5CCCCC5)nc4)cc3c21 [AZD1390] (first compound max 10 µM, 7x7, partner max 0.3 µM) | -0.0246 | -0.0349 | -0.0321 | -0.0029 | -0.0359 | -0.0205 | -0.044 | -0.0086 | -0.0421 | -0.0515 | -0.06 | – | -0.0519 | –
Cn1cnc2c(F)c(Nc3ccc(Br)cc3Cl)c(C(=O)NOCCO)cc21 [Selumetinib] + CCN(CCO)CCCOc1ccc2c(Nc3cc(CC(=O)Nc4cccc(F)c4)[nH]n3)ncnc2c1 [AZD2811] (first compound max 10 µM, 7x7, partner max 1 µM) | -0.0272 | 0.0317 | -0.0458 | -0.0063 | -0.0741 | -0.048 | -0.004 | -0.0161 | -0.029 | -0.0398 | -0.0589 | – | -0.0541 | –
Cn1cnc2c(F)c(Nc3ccc(Br)cc3Cl)c(C(=O)NOCCO)cc21 [Selumetinib] + C[C@@H]1COCCN1C2=NC(=NC(=C2)C3(CC3)[S@](=N)(=O)C)C4=C5C=CNC5=NC=C4 [AZD6738] (first compound max 10 µM, 7x7, partner max 10 µM) | -0.005 | -0.0337 | -0.0061 | 0.0496 | 0.0391 | 0.0057 | -0.0396 | 0.0891 | -0.0407 | -0.039 | -0.0063 | – | -0.0516 | –
CC(=O)Nc1cccc(-n2c(=O)n(C3CC3)c(=O)c3c(Nc4ccc(I)cc4F)n(C)c(=O)c(C)c32)c1 [Trametinib] + Cc1nc(-c2cn3c(n2)-c2ccc(-c4cnn(C(C)(C)C(N)=O)c4)cc2OCC3)n(C(C)C)n1 [Taselisib] (first compound max 1 µM, 7x7, partner max 10 µM) | 0.0641 | 0.0361 | 0.0593 | 0.257 | 0.0816 | 0.137 | 0.0263 | 0.241 | 0.0554 | 0.0891 | 0.0062 | – | 0.0957 | –
CC1(C)CCC(CN2CCN(c3ccc(C(=O)NS(=O)(=O)c4ccc(NCC5CCOCC5)c([N+](=O)[O-])c4)c(Oc4cnc5[nH]ccc5c4)c3)CC2)=C(c2ccc(Cl)cc2)C1 [Venetoclax] + C1CN(CCC1(C(=O)N[C@@H](CCO)C2=CC=C(C=C2)Cl)N)C3=NC=NC4=C3C=CN4 [Capivasertib] (first compound max 1 µM, 7x7, partner max 3 µM) | 0.0068 | -0.0458 | -0.0239 | -0.0087 | -0.0429 | 0.0009 | 0.0068 | -0.033 | -0.0444 | -0.0231 | -0.0569 | – | -0.0173 | –
CC1(C)CCC(CN2CCN(c3ccc(C(=O)NS(=O)(=O)c4ccc(NCC5CCOCC5)c([N+](=O)[O-])c4)c(Oc4cnc5[nH]ccc5c4)c3)CC2)=C(c2ccc(Cl)cc2)C1 [Venetoclax] + C=CCn1c(=O)c2cnc(Nc3ccc(N4CCN(C)CC4)cc3)nc2n1-c1cccc(C(C)(C)O)n1 [AZD1775] (first compound max 1 µM, partner max 1 µM) | 0.0455 | 0.0342 | -0.0687 | -0.026 | -0.0737 | -0.0225 | 0.0331 | -0.0443 | 0.0589 | -0.0268 | -0.063 | – | -0.0559 | –
CC1(C)CCC(CN2CCN(c3ccc(C(=O)NS(=O)(=O)c4ccc(NCC5CCOCC5)c([N+](=O)[O-])c4)c(Oc4cnc5[nH]ccc5c4)c3)CC2)=C(c2ccc(Cl)cc2)C1 [Venetoclax] + CCN(CCO)CCCOc1ccc2c(Nc3cc(CC(=O)Nc4cccc(F)c4)[nH]n3)ncnc2c1 [AZD2811] (first compound max 1 µM, 7x7, partner max 1 µM) | 0.0156 | 0.0452 | 0.0019 | 0.0137 | -0.0386 | -0.0234 | 0.0884 | -0.0061 | -0.0461 | -0.029 | -0.0189 | – | -0.0106 | –
CC1(C)CCC(CN2CCN(c3ccc(C(=O)NS(=O)(=O)c4ccc(NCC5CCOCC5)c([N+](=O)[O-])c4)c(Oc4cnc5[nH]ccc5c4)c3)CC2)=C(c2ccc(Cl)cc2)C1 [Venetoclax] + CN(C)CCCOc1ccc(-c2ccc3ncc4c(c3c2)n(C2CCOCC2)c(=O)n4C)cn1 [AZD0156] (first compound max 1 µM, 7x7, partner max 1 µM) | 0.0502 | 0.0295 | 0.0057 | 0.0097 | -0.0298 | 0.0045 | 0.0156 | -0.0099 | -0.0006 | -0.0226 | -0.0295 | – | -0.0099 | –
CC1(C)CCC(CN2CCN(c3ccc(C(=O)NS(=O)(=O)c4ccc(NCC5CCOCC5)c([N+](=O)[O-])c4)c(Oc4cnc5[nH]ccc5c4)c3)CC2)=C(c2ccc(Cl)cc2)C1 [Venetoclax] + COc1cc(Nc2ncc3c(n2)-c2ccc(Cl)cc2C(c2c(F)cccc2OC)=NC3)ccc1C(=O)O [Alisertib] (first compound max 1 µM, 7x7, partner max 10 µM) | 0.097 | 0.0328 | 0.0468 | 0.0042 | 0.0102 | 0.0184 | 0.147 | 0.0336 | -0.0175 | -0.0349 | 0.0491 | – | -0.008 | –
CC1(C)CCC(CN2CCN(c3ccc(C(=O)NS(=O)(=O)c4ccc(NCC5CCOCC5)c([N+](=O)[O-])c4)c(Oc4cnc5[nH]ccc5c4)c3)CC2)=C(c2ccc(Cl)cc2)C1 [Venetoclax] + C[C@@H]1COCCN1C2=NC(=NC(=C2)C3(CC3)[S@](=N)(=O)C)C4=C5C=CNC5=NC=C4 [AZD6738] (first compound max 1 µM, 7x7, partner max 10 µM) | 0.0104 | 0.0098 | -0.0057 | -0.0665 | -0.0314 | -0.0296 | -0.0214 | -0.037 | -0.0501 | -0.0465 | 0.0309 | – | -0.0174 | –
CC1(C)CCC(CN2CCN(c3ccc(C(=O)NS(=O)(=O)c4ccc(NCC5CCOCC5)c([N+](=O)[O-])c4)c(Oc4cnc5[nH]ccc5c4)c3)CC2)=C(c2ccc(Cl)cc2)C1 [Venetoclax] + C[C@@H](Nc1cc(F)cc(F)c1)c1cc(C(=O)N(C)C)cc2c(=O)cc(N3CCOCC3)oc12 [AZD8186] (first compound max 1 µM, 7x7, partner max 3 µM) | 0.0802 | -0.0452 | -0.0591 | -0.0149 | -0.0307 | -0.0164 | -0.0151 | 0.0033 | 0.0101 | -0.0554 | 0.0025 | – | -0.0286 | –
CC1(C)CCC(CN2CCN(c3ccc(C(=O)NS(=O)(=O)c4ccc(NCC5CCOCC5)c([N+](=O)[O-])c4)c(Oc4cnc5[nH]ccc5c4)c3)CC2)=C(c2ccc(Cl)cc2)C1 [Venetoclax] + Cc1cc2ncnn2cc1Nc1ncc2c(n1)n(C1CCOCC1)c(=O)n2C [AZD7648] (first compound max 1 µM, 7x7, partner max 10 µM) | 0.0203 | -0.0227 | -0.0013 | 0.0043 | -0.0519 | -0.0325 | 0.0398 | -0.0151 | -0.0143 | -0.0452 | -0.0535 | – | -0.0061 | –
CC1(C)CCC(CN2CCN(c3ccc(C(=O)NS(=O)(=O)c4ccc(NCC5CCOCC5)c([N+](=O)[O-])c4)c(Oc4cnc5[nH]ccc5c4)c3)CC2)=C(c2ccc(Cl)cc2)C1 [Venetoclax] + Cn1cnc2c(F)c(Nc3ccc(Br)cc3Cl)c(C(=O)NOCCO)cc21 [Selumetinib] (first compound max 1 µM, 7x7, partner max 3 µM) | 0.0234 | -0.0125 | -0.0279 | -0.025 | -0.0268 | -0.0445 | -0.0299 | 0.0009 | -0.0148 | -0.0412 | -0.0271 | – | 0.0538 | –
